Measurements: the CheMixHub viscosity set
± gives the uncertainty stated by the source.

Assay: xn = mol fraction of the nth substance listed

CC1COC(=O)O1 (stereo unspecified) + CC#N
viscosity [mPa·s], 101.3 kPa
Details	x1 = 0.0418	x1 = 0.0892	x1 = 0.1438	x1 = 0.2071	x1 = 0.2815	x1 = 0.3701	x1 = 0.4776	x1 = 0.6104	x1 = 0.7791
298.15 K	0.383 ± 0.1	0.423 ± 0.1	0.479 ± 0.1	0.551 ± 0.1	0.642 ± 0.1	0.778 ± 0.1	0.968 ± 0.1	1.248 ± 0.1	1.675 ± 0.1
303.15 K	0.363 ± 0.1	0.403 ± 0.1	0.454 ± 0.1	0.521 ± 0.1	0.605 ± 0.1	0.731 ± 0.1	0.906 ± 0.1	1.161 ± 0.1	1.535 ± 0.1
308.15 K	0.347 ± 0.1	0.384 ± 0.1	0.432 ± 0.1	0.494 ± 0.1	0.575 ± 0.1	0.693 ± 0.1	0.846 ± 0.1	1.078 ± 0.1	1.42 ± 0.1
313.15 K	0.331 ± 0.1	0.367 ± 0.1	0.411 ± 0.1	0.469 ± 0.1	0.543 ± 0.1	0.654 ± 0.1	0.802 ± 0.1	1.054 ± 0.1	1.31 ± 0.1
318.15 K	0.316 ± 0.1	0.353 ± 0.1	0.397 ± 0.1	0.455 ± 0.1	0.509 ± 0.1	0.625 ± 0.1	0.76 ± 0.1	0.965 ± 0.1	1.22 ± 0.1

CCCc1ccccc1 + CC(CC(C)(C)C)CC(C)(C)C
viscosity [mPa·s], 102 kPa
Details	x1 = 0.101	x1 = 0.2003	x1 = 0.3007	x1 = 0.4005	x1 = 0.498	x1 = 0.6	x1 = 0.7	x1 = 0.8001	x1 = 0.9002
293.15 K	1.24 ± 0.02	1.16 ± 0.02	1.09 ± 0.02	1.03 ± 0.02	0.983 ± 0.021	0.939 ± 0.021	0.905 ± 0.021	0.877 ± 0.021	0.861 ± 0.021
303.15 K	1.04 ± 0.02	0.986 ± 0.021	0.929 ± 0.021	0.883 ± 0.021	0.847 ± 0.021	0.815 ± 0.021	0.787 ± 0.021	0.762 ± 0.021	0.748 ± 0.021
313.15 K	0.901 ± 0.021	0.852 ± 0.021	0.809 ± 0.021	0.773 ± 0.021	0.744 ± 0.021	0.712 ± 0.021	0.689 ± 0.021	0.666 ± 0.021	0.654 ± 0.021
323.15 K	0.785 ± 0.021	0.75 ± 0.021	0.713 ± 0.021	0.685 ± 0.021	0.656 ± 0.021	0.629 ± 0.021	0.609 ± 0.021	0.589 ± 0.021	0.578 ± 0.021
